# Tested on: human PBMC cytotoxicity, % cell control
# Experiment: cytotoxicity in human PBMCs, dose response, cytotoxicity control for HIV-1 antiviral project, cell-based, human PBMC, set 3 (AID 504630)
smiles,measurement,value
Cc1c2c(=O)n(-c3nc4ccccc4s3)nc-2cc(O)n1Cc1ccccc1,TC50,13.2 µM

# — PubChem BioAssay AID504630 (Southern Research Specialized Biocontainment Screening …, 2011)
